In paper PMC3260207, “Site-Directed Mutations and the Polymorphic Variant Ala160Thr in the Human Thromboxane Receptor Uncover a Structural Role for Transmembrane Helix 4” (PLoS ONE, 2012):
Changes are numbered by the printed parent chain. Several values for one entry are separate records, joined by “and”; a condition that tells them apart may be missing. Equal values may be shown once.

Legend:
Test in all cases: Intracellular calcium mobilization (Fluo-4NW) in transfected HEK293T cells
Assay type in all cases: cell-based
[1] = biological target: T1, TP A160S mutant (Homo sapiens, UniProt P21731, A160S); conditions: read-out: EC50 of agonist U46619 (calcium mobilized), transiently transfected HEK293T cells, mean ± S.E
T1 construct: expressed in transfected cells; HEK293T (calcium assays)
T1 sequence (P21731 1-343 A160S): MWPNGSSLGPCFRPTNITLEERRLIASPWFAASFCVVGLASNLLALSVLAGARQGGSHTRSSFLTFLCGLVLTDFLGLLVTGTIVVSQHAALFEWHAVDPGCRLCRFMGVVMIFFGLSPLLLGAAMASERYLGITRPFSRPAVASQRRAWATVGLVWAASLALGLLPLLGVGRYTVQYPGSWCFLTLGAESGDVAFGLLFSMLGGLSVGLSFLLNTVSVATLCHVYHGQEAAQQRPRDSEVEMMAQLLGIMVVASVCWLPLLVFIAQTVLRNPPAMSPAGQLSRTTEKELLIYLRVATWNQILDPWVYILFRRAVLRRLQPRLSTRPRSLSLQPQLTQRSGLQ
Protocol: (§1) Amino acid substitutions were introduced into the synthetic TPα gene carried by the expression vector pMT4 as described previously, [29]. DNA sequences of all the mutated genes were verified by automated DNA sequencing. To minimize variations in transfection efficiency, the total amount transfected DNA was kept constant in all cases at 1 µg of DNA per 7×10^5 cells. The wild type TP or mutant genes were expressed in COS-1 cells using a DEAE-dextran based transient transfection method, [29], and in HEK293T cells using lipofectamine 2000 (Invitrogen). Except unless specified, the membranes prepared from COS-1 cells were used for radioligand binding assays and immunoblots. For intracellular calcium determination assays and immunofluorescence imaging, HEK293T cells were used. For transient transfections of HEK293T cells using the plasmid pMT4, lipofectamine 2000 (Invitrogen) mediated transfection was used as described by the manufacturer. Membranes were prepared using Buffers A and B and as described previously, [29]. The protein concentration in the resuspended membrane pellet was determined using a modified DC protein assay kit from Bio-Rad Laboratories (Hercules, CA).
(§2) Changes in intracellular calcium were measured by using the fluorescent calcium sensitive dye Fluo-4NW (Invitrogen). After 6–8 hours of transient transfection of HEK293T cells using lipofectamine 2000, 100,000 viable cells were plated into each well of a 96-well tissue culture treated BD-falcon optilux plates. Cells mock transfected with vector pMT4 alone were used as a negative control. Following 24 hours of incubation at 37°C, the media was removed and cells were incubated with the dye Fluo-4NW (Invitrogen) containing 77 µg/ml of probenecid for 1 hour, as recommended by the manufacturer. […] Dose–response curves were generated and EC50 values calculated by nonlinear regression analysis using PRISM software version 5.0 (GraphPad Software Inc, San Diego, CA) after subtracting the responses of mock-transfected cells stimulated with same concentrations of agonists.

[2] = biological target: T2, TP A160T mutant (nsSNP variant) (Homo sapiens, UniProt P21731, A160T); conditions: read-out: EC50 of agonist U46619 (calcium mobilized), transiently transfected HEK293T cells, mean ± S.E
T2 construct: expressed in transfected cells; HEK293T (calcium assays)
T2 sequence (P21731 1-343 A160T): T1 sequence (P21731 1-343 A160S) with S160T
Protocol: as §1, §2

[3] = biological target: T3, TP A160V mutant (Homo sapiens, UniProt P21731, A160V); conditions: read-out: EC50 of agonist U46619 (calcium mobilized), transiently transfected HEK293T cells, mean ± S.E
T3 construct: expressed in transfected cells; HEK293T (calcium assays)
T3 sequence (P21731 1-343 A160V): T1 sequence (P21731 1-343 A160S) with S160V
Protocol: as §1, §2

[4] = biological target: T4, TP G164V/V110A double mutant (Homo sapiens, UniProt P21731, G164V/V110A); conditions: response could be restored upon stimulation with elevated levels of U46619
T4 construct: expressed in transfected cells; transient, pMT4
T4 sequence (P21731 1-343 V110A/G164V): T1 sequence (P21731 1-343 A160S) with V110A, S160A, G164V
Protocol: as §1, §2

[5] = biological target: T5, WT-TP (wild type human thromboxane A2 receptor TPα) (Homo sapiens, UniProt P21731); conditions: read-out: EC50 of agonist U46619 (calcium mobilized), transiently transfected HEK293T cells, mean ± S.E
T5 construct: expressed in transfected cells; HEK293T (calcium assays)
T5 sequence (P21731 1-343): T1 sequence (P21731 1-343 A160S) with S160A
Protocol: as §1, §2

CCCCC[C@H](O)/C=C/[C@@H]1[C@@H](C/C=C\CCCC(=O)O)[C@H]2CO[C@@H]1C2 [U46619]
EC50 [1]: 9.3 ± 0.3 nM | EC50 [2]: 5.5 ± 0.3 nM | EC50 [3]: 9.5 ± 0.2 nM | Calcium response to U46619 [4]: reduced calcium response | EC50 [5]: 13 nM and 13.1 nM
